PubChem BioAssay AID330 (DTP/NCI, 2004)
Where “and” joins values, the source holds several entries; their conditions need not be identical. Identical values can stand only once. Inconclusive results and toxic doses are left out. How the source made its calls: active means survival T/C of 150% or more; inactive means T/C below 125% in these data.

Tested on: P388 leukemia ip, CD2F1 mice, survival T/C
Assay: NCI In Vivo Anticancer Drug Screen. Data for tumor model P388 Leukemia (intraperitoneal) in CD2F1 (CDF1) mice
Conditions: endpoint: median survival time, higher = longer survival
How it was run: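 Mice carrying the transplanted tumor received test compound or vehicle. Survival was recorded in each group, and the value is the treated-group measurement divided by that of the vehicle-treated control group.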

[1] = dose: 50.0 mg/kg/injection, schedule: Q01DX005 (ip), vehicle: Klucel (hydroxypropylcellulose) (HPC)
[2] = dose: 60.0 mg/kg/injection, schedule: Q01DX005 (ip), vehicle: saline with Tween-80
[3] = dose: 120.0 mg/kg/injection, schedule: Q01DX005 (ip), vehicle: saline with Tween-80
[4] = dose: 240.0 mg/kg/injection, schedule: Q01DX005 (ip), vehicle: saline with Tween-80
[5] = dose: 100.0 mg/kg/injection, schedule: Q01DX009 (ip), vehicle: saline with Tween-80
[6] = dose: 200.0 mg/kg/injection, schedule: Q01DX009 (ip), vehicle: saline with Tween-80
[7] = dose: 25.0 mg/kg/injection, schedule: Q01DX009 (ip), vehicle: saline
[8] = dose: 12.5 mg/kg/injection, schedule: Q01DX009 (ip), vehicle: saline with Tween-80
[9] = dose: 25.0 mg/kg/injection, schedule: Q01DX009 (ip), vehicle: saline with Tween-80
[10] = dose: 50.0 mg/kg/injection, schedule: Q01DX009 (ip), vehicle: saline
[11] = dose: 50.0 mg/kg/injection, schedule: Q01DX009 (ip), vehicle: saline with Tween-80

Measured: T/C

Nc1ccc2nc3ccc(=O)cc-3n(-c3ccccc3)c2c1
inactive: dose: 0.5 mg/kg/injection, schedule: Q01DX009 (ip), vehicle: saline 115 % of control | dose: 1.0 mg/kg/injection, schedule: Q01DX009 (ip), vehicle: saline 124 % of control | dose: 1.25 mg/kg/injection, schedule: Q01DX009 (ip), vehicle: saline 102 % of control | dose: 2.5 mg/kg/injection, schedule: Q01DX009 (ip), vehicle: saline 104 % of control | dose: 5.0 mg/kg/injection, schedule: Q01DX009 (ip), vehicle: saline 105 % of control | dose: 20.0 mg/kg/injection, schedule: Q01DX009 (ip), vehicle: saline 119 % of control | dose: 40.0 mg/kg/injection, schedule: Q01DX009 (ip), vehicle: saline 114 % of control

CCOc1ccc(C2=C(O)/C(=C(\C(=O)Nc3nccs3)c3ccc(OCC)cc3)OC2=O)cc1
inactive: dose: 12.5 mg/kg/injection, schedule: Q01DX005 (ip), vehicle: Klucel (hydroxypropylcellulose) (HPC) 109 % of control | dose: 25.0 mg/kg/injection, schedule: Q01DX005 (ip), vehicle: Klucel (hydroxypropylcellulose) (HPC) 104 % of control | [1] 100 % of control and 104 % of control

Cn1cc(/C=C/C(=O)c2ccccc2[N+](=O)[O-])c2ccccc21
inactive: [2] 95 % of control | [3] 89 % of control | [4] 89 % of control

COc1ccc(OC)c(NC(=O)CCCC(=O)CC(=O)c2cccnc2)c1
inactive: [2] 103 % of control | [3] 103 % of control | [4] 101 % of control

ICC1COC(CI)CO1 (stereo not drawn)
inactive: [5] 100 % of control | [6] 104 % of control | dose: 400.0 mg/kg/injection, schedule: Q01DX009 (ip), vehicle: saline with Tween-80 90 % of control

CC(C)(C)N=C(CCNC1CCCCC1)Nc1cccc(C(F)(F)F)c1
inactive: dose: 25.0 mg/kg/injection, schedule: Q01DX001 (ip), vehicle: saline 98 % of control | dose: 50.0 mg/kg/injection, schedule: Q01DX001 (ip), vehicle: saline 101 % of control | dose: 100.0 mg/kg/injection, schedule: Q01DX001 (ip), vehicle: saline with Tween-80 101 % of control | dose: 100.0 mg/kg/injection, schedule: Q01DX001 (ip), vehicle: saline 113 % of control

Cc1ccc(O)c(O)c1
inactive: [7] 101 % of control

C=C1CC2C3CC=C4CC(OC(C)=O)CCC4(C)C3CCC2(C)C1=O (stereo not drawn)
inactive: [8] 94 % of control | [9] 92 % of control | [10] 104 % of control | dose: 100.0 mg/kg/injection, schedule: Q01DX009 (ip), vehicle: saline 110 % of control

CCC1(C)C(=O)C(C)(CC)C1=O (stereo not drawn)
inactive: [2] 105 % of control | [3] 107 % of control | [4] 116 % of control

CCOP(=S)(N/N=C/c1ccc2ccccc2c1O)OCC
inactive: [1] 109 % of control | dose: 100.0 mg/kg/injection, schedule: Q01DX005 (ip), vehicle: Klucel (hydroxypropylcellulose) (HPC) 106 % of control | dose: 200.0 mg/kg/injection, schedule: Q01DX005 (ip), vehicle: Klucel (hydroxypropylcellulose) (HPC) 95 % of control

N#CCCn1nnc2ccccc21
inactive: dose: 6.25 mg/kg/injection, schedule: Q01DX009 (ip), vehicle: Klucel (hydroxypropylcellulose) (HPC) 91 % of control | dose: 12.5 mg/kg/injection, schedule: Q01DX009 (ip), vehicle: Klucel (hydroxypropylcellulose) (HPC) 94 % of control | dose: 25.0 mg/kg/injection, schedule: Q01DX009 (ip), vehicle: Klucel (hydroxypropylcellulose) (HPC) 95 % of control | dose: 50.0 mg/kg/injection, schedule: Q01DX009 (ip), vehicle: Klucel (hydroxypropylcellulose) (HPC) 88 % of control

[CH3][Sn]([CH3])([N]=C=S)[N]=C=S
inactive: dose: 6.25 mg/kg/injection, schedule: Q01DX009 (ip), vehicle: saline 86 % of control and 93 % of control | dose: 12.5 mg/kg/injection, schedule: Q01DX009 (ip), vehicle: saline 100 % of control and 102 % of control and 106 % of control | [7] 99 % of control and 102 % of control | [10] 99 % of control and 103 % of control | dose: 50.0 mg/kg/injection, schedule: Q01DX009 (ip), vehicle: suspension in saline 114 % of control

Nc1nc(-c2ccccc2)c(Br)c(=O)[nH]1
inactive: dose: 100.0 mg/kg/injection, schedule: Q01DX005 (ip), vehicle: saline with Tween-80 112 % of control | dose: 200.0 mg/kg/injection, schedule: Q01DX005 (ip), vehicle: saline with Tween-80 105 % of control | dose: 400.0 mg/kg/injection, schedule: Q01DX005 (ip), vehicle: saline with Tween-80 100 % of control

CCCCCCCCCCCC(=O)OCCN(CCOC(=O)CCCCCCCCCCC)C(=O)COC(=O)CCCCCCCCCCC
inactive: dose: 6.25 mg/kg/injection, schedule: Q01DX009 (ip), vehicle: saline with Tween-80 96 % of control | [8] 98 % of control | [9] 100 % of control | dose: 100.0 mg/kg/injection, schedule: Q01DX009 (ip), vehicle: saline + Tween-80 + alcohol 111 % of control | dose: 200.0 mg/kg/injection, schedule: Q01DX009 (ip), vehicle: saline + Tween-80 + alcohol 107 % of control

CN(CN1C(=O)CCC1=O)CN1C(=O)CCC1=O
inactive: dose: 30.0 mg/kg/injection, schedule: Q01DX005 (ip), vehicle: saline 106 % of control | dose: 60.0 mg/kg/injection, schedule: Q01DX005 (ip), vehicle: saline 106 % of control and 110 % of control | dose: 120.0 mg/kg/injection, schedule: Q01DX005 (ip), vehicle: saline 108 % of control | dose: 240.0 mg/kg/injection, schedule: Q01DX005 (ip), vehicle: saline 119 % of control

N#CC(=N)C(C#N)=Nc1c(O)[nH]c2ccccc12
inactive: dose: 6.25 mg/kg/injection, schedule: Q01DX009 (ip), vehicle: DMSO 100 % of control | dose: 12.5 mg/kg/injection, schedule: Q01DX009 (ip), vehicle: DMSO 94 % of control | dose: 25.0 mg/kg/injection, schedule: Q01DX009 (ip), vehicle: DMSO 100 % of control | dose: 50.0 mg/kg/injection, schedule: Q01DX009 (ip), vehicle: DMSO 108 % of control

CN1C(=O)C2C(C1=O)[C@H]1c3ccccc3C=CN1[C@@H]2C(=O)c1ccccc1 (stereo partly drawn)
inactive: [2] 93 % of control | [3] 90 % of control | [4] 90 % of control

O=C(/N=C1\N=Nc2c(O)c(C3(c4nc5n(c4O)/C(=N/C(=O)Nc4ccc(Cl)cc4)N=N5)Cc4ccccc4C3=O)nn21)Nc1ccc(Cl)cc1 (stereo not drawn)
inactive: [2] 101 % of control | [3] 94 % of control | [4] 94 % of control

COc1ccc(C2CC(=O)N(CN3CCN(c4ccccc4)CC3)C(=O)C2)cc1
inactive: [8] 98 % of control | [9] 93 % of control | [11] 87 % of control and 92 % of control

O=C1c2ccccc2C(=O)N1C(CO)Cc1ccccc1 (stereo not drawn)
inactive: [11] 100 % of control | [5] 95 % of control | [6] 108 % of control

CC(=O)[O][Hg][c]1cc(-c2ccc(N=Nc3c(S(=O)(=O)O)cc4cccc(N)c4c3O)cc2)ccc1N=Nc1c(S(=O)(=O)O)cc2cccc(N)c2c1O
inactive: dose: 3.13 mg/kg/injection, schedule: Q04DX003 (ip), vehicle: saline with Tween-80 90 % of control | dose: 6.25 mg/kg/injection, schedule: Q04DX003 (ip), vehicle: saline with Tween-80 95 % of control
